US12702670B2, “Compositions and methods for treating breast cancer” (The Regents of the University of California, priority 2020, dated 2026)
Entries after “also recorded” stand apart in the source; their conditions may differ.

How the values were obtained:
[1] = system: HCC 1937 TNBC cell line; experiment: Scratch wound migration assay (IncuCyte S3); assay type: cell-based; details: media conditioned with IGF2 alone (100 ng/ml), 48 h
Experimental: (§1) MDA-MB-231 and HCC 1937 TNBC cell lines were cultured in complete media in 96-welled plates. In each well 60,000 cells were plated. Scratch wounds were made using Unique WoundMaker™. Wound images were collected every 2 h for 48 h using the IncuCyte S3 Live-Cell Analysis System. Media containing IGF2 (100 ng/ml) was refreshed daily. […] Magnification 100×. P<0.05. […] Magnification 100×. P<0.05. FIGS. 4C & D show conditioned media containing a combination of IGF1R/IR antagonists. […] BMS/NVP=BMS-754807 (20 uM) and NVP-AEW541 (8 uM).
(§2) In vitro TNBC cell migration is stimulated in media conditioned with IGF2 alone (FIGS. 4A & 4B).

[2] = system: MDA-MB-231 TNBC cell line; experiment: Scratch wound migration assay (IncuCyte S3); assay type: cell-based, human; details: media conditioned with IGF2 alone (100 ng/ml), 48 h
Experimental: as §1, §2

[3] = system: IGF2-expressing TNBC cells; details: in vitro; statement carries reference 1; cited from earlier work
[4] = system: IGF2-expressing TNBC cells; experiment: TNBC cell proliferation in vitro; assay type: cell-based, human; details: alone and combined
[5] = system: murine 4T1 TNBC; experiment: Cell viability of murine 4T1 TNBC in vitro; assay type: cell-based
Experimental: After seeding TNBC cells for 24 hr, cells were exposed to selected combinations of BMS-754807 (20 μM), enzalutamide (20 μM), and NVP-AEW541 (8 μM) for 72 h. Cell viability was tested by CellTiter 96® aqueous non-radioactive cell proliferation assay (error bar=SEM; n=8; **P<0.001 *P<0.05). Results shown as % of vehicle treated controls.

[6] = system: AR; experiment: AR levels in TNBC cells; assay type: cell-based; details: in vitro
[7] = system: 4T1 TNBC cells; experiment: Murine 4T1 TNBC model in syngeneic BALB/c mice; assay type: in vivo
Experimental: FIG. 6A-D show a combination treatment of BMS with anti PD-L1 checkpoint antibody suppresses 4T1 TNBC xenograft progression in vivo. TNBC 4T1 cells (2×105) were implanted in the mammary fat pads of BALB/c female mice (6-week old) using established methods. Mice were then randomized for treatment when tumor volumes were approx. 200 mm3. Mice were treated with either vehicle control (Con), BMS 10 mg/kg, by oral gavage, daily (BMS), anti-PD-L1 checkpoint antibody from Biolegend (anti-CD274/B7-H1/PD-L1 clone 10F.9G2, 100 μg/mouse IP in PBS, Q3 days) (Ab) or combination therapy with BMS and anti-PD-L1 antibody (BMS+Ab). Tumor sizes were recorded Q 2-3 days; and mice were weighed twice weekly. Studies used 5 mice/group.
TNBC clinical trials have shown a potential benefit of anti-PD-L1 antibodies as ICIs for anti-TNBC therapy. […] Thus, 4T1 cells were implanted in mammary fat pads of female syngeneic BALB/c mice to assess antitumor efficacy of BMS-754807 alone and combined with anti-PD-L1 antibodies in mice with intact immune systems (FIG. 6). After 10 days of treatment, tumors were harvested and processed for mass cytometry analyses to assess changes in immune cell subsets under different treatment conditions in FIG. 6.

Row | Compound | cell migration [1] | cell migration [2] | human TNBC cell proliferation [3] | anti-proliferative effects on IGF2-expressing TNBC cells [4] | cell viability [5] | levels of ARs in TNBC cells [6] | tumor volume / TNBC progression ([7]; BALB/c mice, 4T1 in mammary fat pads, BMS 10 mg/kg oral gavage daily, anti-PD-L1 antibody 100 μg/mouse IP Q3 days) | myeloid derived suppressor cells (MDSCs), total and PMN-MDSC, in tumors ([7]; mass cytometry of 4T1 tumors harvested after 10 days of treatment, BMS 10 mg/kg oral daily, Ab 100 μg IP Q3 days) | effector CD8+ and CD4+ tumor infiltrating lymphocytes (TILs) ([7]; mass cytometry of 4T1 tumors, BMS 10 mg/kg oral daily, Ab 100 μg IP Q3 days)
1 | IGF2: insulin-like growth factor 2, hormone added to media at 100 ng/ml | stimulated | stimulated | – | – | – | – | – | – | –
2 | C[C@@]1(C(=O)Nc2ccc(F)nc2)CCCN1c1nc(Nc2cc(C3CC3)n[nH]2)c2cccn2n1 [BMS-754807] | – | – | reduce human TNBC cell proliferation | anti-proliferative effects | Reduction of cell viability | decrease levels of ARs | markedly reduced tumor volume; also recorded: significant antitumor effects | decreased levels | significantly increased
3 | Nc1ncnc2c1c(-c1cccc(OCc3ccccc3)c1)cn2C1CC(CN2CCC2)C1 (centres unmarked) [NVP-AEW541] | – | – | – | anti-proliferative effects | – | decrease levels of ARs | – | – | –
